# Earlier results in patent US20050163842A1, “Rosiglitazone and metformin formulations” (priority 2003, published 2005).
# Legend:
# [1] = system: mouse models of diabetes
# [2] = system: animal models of type 2 diabetes
smiles,measurement,setting,value
"CN(CCOc1ccc(CC2SC(=O)NC2=O)cc1)c1ccccn1 (stereo not drawn) [Rosiglitazone, 5-[4-[2-(N-methyl-N-(2-pyridyl)amino)ethoxy]benzyl]thiazolidine-2,4-dione]",development of overt diabetes,[1]; mouse models,prevent the development of overt diabetes
same,blood glucose levels and hyperinsulinemia,[1]; several mouse models of diabetes,reduce blood glucose levels and hyperinsulinemia
same,hypoglycemia or impaired glucose tolerance,[2],did not induce hypoglycemia or impaired glucose tolerance
